Measured values as given in patent publication US6348309B1, “Process for inactivating viruses in blood and blood products” (priority 1989, dated 2002).
Marks after values point to notes of the source that are not given here.

What was measured:
adeno-virus = assay: Photodynamic treatment of adenovirus with freeze/thaw step (Example 8); format: cell-based
SIV = assay: MB/light virus inactivation in plasma (Example 6, Table VI); format: cell-based; conditions: illumination 15 min; * production conditions, plastic bag 250-300 ml plasma
coagulation factor V = biological target: T1, coagulation factor V (Homo sapiens, UniProt P12259); assay: Coagulation factor activity in human plasma with MB and light exposure (Example 10); format: biochemical
T1 construct: Varying amounts of MB were added to human plasma (2 ml aliquots); from tissue; host or cells: human plasma

HIV-2 = assay: MB/light virus inactivation in plasma (Example 6, Table VI); format: cell-based; conditions: illumination 15 min; * production conditions, plastic bag 250-300 ml plasma
Bovine Herpes = assay: as above; format: cell-based; conditions: illumination 30 min; * production conditions, plastic bag 250-300 ml plasma
West Nile = assay: as above; format: cell-based; conditions: illumination 60 min
VSV = format: cell-based, vesicular stomatitis virus
factor V = biological target: T2, factor V (Homo sapiens, UniProt P12259); assay: Factor V content of plasma after MB and adsorbing agent (Example 14); format: biochemical; conditions: fresh plasma + MB 10 μM, no adsorbing agent
T2 construct: MB was added to 250 ml fresh plasma; from tissue; host or cells: fresh plasma

Hog Cholera = format: cell-based

T1 sequence (P12259 29-2224): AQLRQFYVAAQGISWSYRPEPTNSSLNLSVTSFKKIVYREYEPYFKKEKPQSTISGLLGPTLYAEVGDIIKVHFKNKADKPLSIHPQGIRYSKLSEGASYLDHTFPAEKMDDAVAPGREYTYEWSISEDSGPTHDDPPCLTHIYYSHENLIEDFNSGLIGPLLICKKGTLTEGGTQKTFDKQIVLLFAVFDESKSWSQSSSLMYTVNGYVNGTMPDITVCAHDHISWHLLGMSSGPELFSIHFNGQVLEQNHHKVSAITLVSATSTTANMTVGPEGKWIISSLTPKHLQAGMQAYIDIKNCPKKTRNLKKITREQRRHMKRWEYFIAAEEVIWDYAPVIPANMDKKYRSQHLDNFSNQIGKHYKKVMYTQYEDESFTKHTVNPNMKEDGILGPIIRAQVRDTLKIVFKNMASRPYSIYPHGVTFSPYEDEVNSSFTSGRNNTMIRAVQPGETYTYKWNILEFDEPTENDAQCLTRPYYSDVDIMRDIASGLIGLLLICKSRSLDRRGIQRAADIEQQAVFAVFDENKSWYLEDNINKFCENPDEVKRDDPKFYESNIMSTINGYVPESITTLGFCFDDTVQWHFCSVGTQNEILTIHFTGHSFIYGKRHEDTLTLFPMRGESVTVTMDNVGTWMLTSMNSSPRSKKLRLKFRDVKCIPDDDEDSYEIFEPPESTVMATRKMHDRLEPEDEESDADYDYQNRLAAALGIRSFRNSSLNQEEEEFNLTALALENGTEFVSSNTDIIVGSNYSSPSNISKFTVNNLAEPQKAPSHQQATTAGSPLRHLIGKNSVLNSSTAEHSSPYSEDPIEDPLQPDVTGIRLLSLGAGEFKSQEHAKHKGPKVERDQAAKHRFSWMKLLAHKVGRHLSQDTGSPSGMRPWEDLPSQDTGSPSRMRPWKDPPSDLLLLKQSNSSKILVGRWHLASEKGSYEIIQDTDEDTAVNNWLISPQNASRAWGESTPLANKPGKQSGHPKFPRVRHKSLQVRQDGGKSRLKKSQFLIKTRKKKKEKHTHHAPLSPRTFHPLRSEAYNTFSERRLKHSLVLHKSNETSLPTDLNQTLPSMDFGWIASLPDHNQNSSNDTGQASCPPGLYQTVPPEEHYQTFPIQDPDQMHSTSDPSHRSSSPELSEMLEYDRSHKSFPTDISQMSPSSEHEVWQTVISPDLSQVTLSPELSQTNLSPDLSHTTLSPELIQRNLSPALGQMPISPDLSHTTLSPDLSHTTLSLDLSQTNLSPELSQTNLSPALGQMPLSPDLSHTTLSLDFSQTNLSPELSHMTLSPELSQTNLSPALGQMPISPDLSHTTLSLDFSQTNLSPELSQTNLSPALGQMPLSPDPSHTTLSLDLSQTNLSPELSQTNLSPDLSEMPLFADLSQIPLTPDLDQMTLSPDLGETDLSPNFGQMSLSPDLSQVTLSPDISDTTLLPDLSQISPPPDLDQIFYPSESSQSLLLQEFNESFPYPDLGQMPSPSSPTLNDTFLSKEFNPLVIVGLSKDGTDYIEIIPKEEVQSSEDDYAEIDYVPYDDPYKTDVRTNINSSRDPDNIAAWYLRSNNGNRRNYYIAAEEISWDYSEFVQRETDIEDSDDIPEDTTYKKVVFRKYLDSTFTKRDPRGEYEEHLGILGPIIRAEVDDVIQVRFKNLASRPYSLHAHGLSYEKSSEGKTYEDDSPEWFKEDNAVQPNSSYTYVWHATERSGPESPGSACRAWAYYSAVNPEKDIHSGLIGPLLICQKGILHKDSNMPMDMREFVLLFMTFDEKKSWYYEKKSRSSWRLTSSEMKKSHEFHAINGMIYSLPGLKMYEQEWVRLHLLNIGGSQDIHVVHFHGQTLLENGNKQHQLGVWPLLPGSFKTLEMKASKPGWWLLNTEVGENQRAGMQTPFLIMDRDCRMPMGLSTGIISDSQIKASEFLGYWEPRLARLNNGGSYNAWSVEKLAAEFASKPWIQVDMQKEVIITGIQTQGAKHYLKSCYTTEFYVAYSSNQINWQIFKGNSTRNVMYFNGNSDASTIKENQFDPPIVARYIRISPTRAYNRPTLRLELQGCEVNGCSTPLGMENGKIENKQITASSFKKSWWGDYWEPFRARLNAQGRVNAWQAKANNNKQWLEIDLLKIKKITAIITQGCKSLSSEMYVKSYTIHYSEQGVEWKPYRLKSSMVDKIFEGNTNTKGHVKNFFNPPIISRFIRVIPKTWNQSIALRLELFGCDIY
T2 sequence (P12259 29-2224): as above

In the case of `CN(C)c1ccc2nc3ccc(=[N+](C)C)cc-3sc2c1` [MB, methylene blue], the “Virus Titer” value (adeno-virus; Sample C: F/T + MB + 60 min pre-incubation + 60 min irradiation) is reported as 2.5 Log10 TCID50, the “Virus Titer” value (adeno-virus; Sample D: MB + F/T, no irradiation) is reported as 7.5 Log10 TCID50 and the “Virus Titer” value (adeno-virus; Sample E: MB + F/T + 10 min irradiation) is reported as 5.0 Log10 TCID50. The “Virus Titer” value (adeno-virus; Sample F: MB + F/T + 30 min irradiation) was 5.0 Log10 TCID50, the “Virus Titer” value (adeno-virus; Sample G: MB + F/T + 60 min irradiation) was 4.0 Log10 TCID50 and the “Inactivation Rate” value (SIV) was >6.26 * log10 TCID50. The “Factor V” value (coagulation factor V; light exposure 0 h, MB 1 μM) was 0.86 E/ml, the “Factor V” value (coagulation factor V; light exposure 0 h, MB 2.5 μM) was 0.82 E/ml and the “Factor V” value (coagulation factor V; light exposure 0 h, MB 10 μM) was 0.72 E/ml. For the same compound, the “Factor V” value (coagulation factor V; light exposure 1 h, MB 1 μM) was 0.72 E/ml, the “Factor V” value (coagulation factor V; light exposure 1 h, MB 2.5 μM) was 0.68 E/ml and the “Factor V” value (coagulation factor V; light exposure 1 h, MB 10 μM) was 0.47 E/ml. The “Factor V” value (coagulation factor V; light exposure 2 h, MB 1 μM) was 0.64 E/ml, the “Factor V” value (coagulation factor V; light exposure 2 h, MB 2.5 μM) was 0.68 E/ml and the “Factor V” value (coagulation factor V; light exposure 2 h, MB 10 μM) was 0.60 E/ml. The “Factor V” value (coagulation factor V; light exposure 4 h, MB 1 μM) was 0.56 E/ml, the “Factor V” value (coagulation factor V; light exposure 4 h, MB 2.5 μM) was 0.49 E/ml and the “Factor V” value (coagulation factor V; light exposure 4 h, MB 10 μM) was 0.42 E/ml. For the same compound, the “Inactivation Rate” value (HIV-2) was >3.81 * log10 TCID50, the “Inactivation Rate” value (Bovine Herpes) was >8.11 * log10 TCID50 and the “Inactivation Rate” value (West Nile) was over 6.50 log10 TCID50. For the same compound, the “reduction of infectious VSV titer” value (VSV) was “more than 6 log10”, the “Factor V” value (factor V) was 0.96 U/ml and the “Inactivation Rate” value (Hog Cholera) was >5.92 * log10 TCID50.
